# Reference: the supplement of paper PMC10307832
# What was measured:
# Test in all cases: relative viability (nuclei count vs DMSO), 5 days (fraction); higher = more cells survive
# XMD14-99 + Tozasertib = compound: CN1CCN(CC1)C2=CC(=C(C=C2)NC3=NC(=C(S3)C(=O)C4=C(C=CC=C4Cl)Cl)N)OC [XMD14-99] + Cc1cc(Nc2cc(N3CCN(C)CC3)nc(Sc3ccc(NC(=O)C4CC4)cc3)n2)n[nH]1 [Tozasertib] (partner 0.1 µM)
# Outline: (§1)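 Cells from lung cancer lines were seeded into 1536-well plates and, one day later, dosed by pin tool. Treatments were either a single drug or a fixed dose of an anchor drug with five library-drug doses (not always all listed) in √10 steps. After 5 days, nuclei were stained in a one-step fixation (final 0.05% Triton X-100, 1% formaldehyde, 1 ug/ml Hoechst) and counted on 4× images, and relative viability is the treated-to-vehicle nuclei ratio, as the median of duplicate plates.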
# AZD1208 + Phenformin = compound: N[C@@H]1CCCN(c2c(/C=C3\SC(=O)NC3=O)cccc2-c2ccccc2)C1 [AZD1208] + N=C(N)NC(=N)NCCc1ccccc1 [Phenformin] (partner 250 µM)
# Outline: as §1
# XMD14-99 + AZD7762 = compound: CN1CCN(CC1)C2=CC(=C(C=C2)NC3=NC(=C(S3)C(=O)C4=C(C=CC=C4Cl)Cl)N)OC [XMD14-99] + NC(=O)Nc1cc(-c2cccc(F)c2)sc1C(=O)N[C@H]1CCCNC1 [AZD7762] (partner 0.2 µM)
# Outline: as §1
# XMD14-99 + Pemetrexed = compound: CN1CCN(CC1)C2=CC(=C(C=C2)NC3=NC(=C(S3)C(=O)C4=C(C=CC=C4Cl)Cl)N)OC [XMD14-99] + Nc1nc2[nH]cc(CCc3ccc(C(=O)N[C@@H](CCC(=O)O)C(=O)O)cc3)c2c(=O)[nH]1 [Pemetrexed] (partner 0.2 µM)
# Outline: as §1
Cell Line,relative viability (XMD14-99 + Tozasertib; first compound 0.08 µM),relative viability (XMD14-99 + Tozasertib; first compound 0.8 µM),relative viability (XMD14-99 + Tozasertib; first compound 2.53 µM),relative viability (XMD14-99 + Tozasertib; first compound 8 µM),relative viability (AZD1208 + Phenformin; first compound 0.08 µM),relative viability (AZD1208 + Phenformin; first compound 0.253 µM),relative viability (AZD1208 + Phenformin; first compound 0.8 µM),relative viability (AZD1208 + Phenformin; first compound 2.53 µM),relative viability (AZD1208 + Phenformin; first compound 8 µM),relative viability (XMD14-99 + AZD7762; first compound 0.08 µM),relative viability (XMD14-99 + AZD7762; first compound 0.8 µM),relative viability (XMD14-99 + AZD7762; first compound 2.53 µM),relative viability (XMD14-99 + AZD7762; first compound 8 µM),relative viability (XMD14-99 + Pemetrexed; first compound 0.08 µM),relative viability (XMD14-99 + Pemetrexed; first compound 0.8 µM),relative viability (XMD14-99 + Pemetrexed; first compound 2.53 µM),relative viability (XMD14-99 + Pemetrexed; first compound 8 µM)
NCI-H727,0.661,0.558,0.532,0.342,0.359,0.497,0.514,0.532,0.524,0.582,0.598,0.506,0.578,–,–,–,–
NCI-H1563,–,–,–,–,0.64,0.644,0.709,0.617,0.665,–,–,–,–,0.884,0.937,0.787,0.751
NCI-H1623,0.429,0.429,0.38,0.394,0.573,0.642,0.593,0.548,0.611,–,–,–,–,–,–,–,–
NCI-H1648,0.362,0.292,0.316,0.253,–,–,–,–,–,0.715,0.625,0.672,0.581,0.61,0.564,0.554,0.542
NCI-H1650,0.351,0.422,0.319,0.258,0.416,0.424,0.414,0.337,0.289,–,–,–,–,0.387,0.369,0.359,0.321
NCI-H1703,–,–,–,–,–,–,–,–,–,0.0933,0.124,0.143,0.118,–,–,–,–
NCI-H1792,–,–,–,–,0.371,0.233,0.179,0.258,0.138,0.822,0.556,0.599,0.305,1.03,0.72,0.68,0.529
NCI-H2009,0.683,0.617,0.541,0.399,0.481,0.489,0.491,0.489,0.441,–,–,–,–,1.07,1,0.947,0.997
NCI-H2023,0.396,0.332,0.302,0.185,0.394,0.386,0.348,0.367,0.295,–,–,–,–,0.249,0.249,0.224,0.167
NCI-H2228,0.234,0.258,0.187,0.148,0.364,0.316,0.209,0.269,0.216,–,–,–,–,0.324,0.319,0.398,0.257
SK-LU-1,0.34,0.298,0.355,0.254,0.502,0.543,0.408,0.506,0.42,–,–,–,–,0.98,1.02,0.942,0.684
SK-MES-1,0.925,0.861,0.761,0.5,0.668,0.672,0.648,0.696,0.621,–,–,–,–,0.939,0.833,0.882,0.659
SW 1573,0.168,0.286,0.198,0.21,0.295,0.272,0.27,0.244,0.228,–,–,–,–,0.726,0.847,0.788,0.776
